PubChem BioAssay AID1068 (Emory University Molecular Libraries Screening Center, 2008)
The source made the active and inactive calls.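 Rule for the calls: active = IC50 of 15 µM or lower, and residual activity at the IC50 concentration no higher than 60%; inactive = the rest.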

Target: Ubiquitin carboxyl-terminal hydrolase BAP1 (Homo sapiens) (UniProt Q92560)
Assay: BAP1 inhibitor potency with two substrates, dose response, biochemical, Ub-AMC versus Ub-rhodamine substrates (AID 1068)
Conditions: recombinant BAP1, Ub-rhodamine hydrolysis fluorescence
[1] = measured here: Ub-AMC substrate assay

Ubiquitin carboxyl-terminal hydrolase BAP1 (Homo sapiens), sequence (Q92560 whole entry, looked up): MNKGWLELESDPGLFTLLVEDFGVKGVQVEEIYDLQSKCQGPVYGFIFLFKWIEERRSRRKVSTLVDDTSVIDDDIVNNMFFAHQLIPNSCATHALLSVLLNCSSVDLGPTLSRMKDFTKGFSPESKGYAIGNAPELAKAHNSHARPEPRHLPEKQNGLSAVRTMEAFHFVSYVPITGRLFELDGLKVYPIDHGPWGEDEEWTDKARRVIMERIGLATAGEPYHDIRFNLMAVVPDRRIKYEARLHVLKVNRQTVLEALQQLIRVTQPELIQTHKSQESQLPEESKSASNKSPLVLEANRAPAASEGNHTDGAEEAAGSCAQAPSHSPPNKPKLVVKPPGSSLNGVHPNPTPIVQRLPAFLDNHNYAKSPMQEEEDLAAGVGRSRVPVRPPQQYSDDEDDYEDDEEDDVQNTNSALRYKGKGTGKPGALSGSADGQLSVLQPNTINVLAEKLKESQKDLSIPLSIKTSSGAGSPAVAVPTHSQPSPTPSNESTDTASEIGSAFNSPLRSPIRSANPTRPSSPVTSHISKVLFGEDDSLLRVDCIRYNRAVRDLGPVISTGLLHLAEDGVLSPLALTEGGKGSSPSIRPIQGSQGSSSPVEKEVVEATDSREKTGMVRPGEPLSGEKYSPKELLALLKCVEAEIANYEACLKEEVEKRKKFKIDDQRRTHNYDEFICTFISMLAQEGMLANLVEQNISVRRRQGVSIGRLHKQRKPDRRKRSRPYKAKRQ

IC50	IC50 [1]	outcome	Compound
inactive	37.5 µM	–	COc1cccc(NC(=O)c2ccccc2-c2nc(-c3cccc(Cl)c3)no2)c1
inactive	99.7 µM	–	Cc1sc(NC(=O)CSc2nnc(-c3ccc(F)cc3)o2)c(C#N)c1C
inactive	> 100 µM	–	O=C(NCc1ccco1)c1cc2nc(-c3ccc4c(c3)OCO4)cc(C(F)(F)F)n2n1
10 µM	37 µM	–	Cc1ccc(-c2c(C)sc(NC(=O)CSc3nnc(-c4ccc(F)cc4)o3)c2C#N)cc1C
12.5 µM	32.1 µM	–	Cc1sc(NC(=O)CSc2nnc(-c3ccccc3)o2)c(C#N)c1-c1ccc(F)cc1
> 100 µM (inactive)	38.9 µM	–	Cc1cccc2cc(C(c3nn[nH]n3)N3CCN(C(=O)OC(C)(C)C)CC3)c(=O)[nH]c12 (stereo not drawn)
inactive	27.1 µM	–	O=C(Nc1cccc(O)c1)c1ccccc1-c1nc(-c2cccc(Cl)c2)no1
> 100 µM (inactive)	> 100 µM	–	Cc1cccc2cc(C(c3nnnn3C(C)(C)C)N3CCN(C(=O)OC(C)(C)C)CC3)c(=O)[nH]c12 (stereo not drawn)
–	2.32 µM	inactive	COc1cc(-c2nnc(SCC(=O)Nc3sc(C)c(C)c3C#N)o2)cc(OC)c1OC
inactive	69.8 µM	–	Cc1ccc(-c2c(C)sc(NC(=O)CSc3nnc(-c4ccccc4)o3)c2C#N)cc1C
13.5 µM	32.6 µM	–	Cc1ccc(-c2c(C)sc(NC(=O)CSc3nnc(-c4ccc(Cl)cc4)o3)c2C#N)cc1C
9.54 µM	37.4 µM	–	Cc1sc(NC(=O)CSc2nnc(-c3ccc(Cl)cc3)o2)c(C#N)c1C
–	> 100 µM	inactive	Cc1sc(NC(=O)CSc2nc3ncnc(N)c3[nH]2)c(C#N)c1C
inactive	1.31 µM	–	O=C(O)c1ccccc1-c1nc(-c2ccc(Cl)cc2)no1
inactive	> 100 µM	–	N#Cc1c(NC(=O)CSc2nnc(-c3ccc(Cl)cc3)o2)sc2c1CCCC2
–	> 100 µM	inactive	COC(=O)c1ccc(NC(=O)CSc2nc(C)cc(=O)[nH]2)cc1
inactive	39.6 µM	–	COc1cc(-c2nnc(SCC(=O)Nc3sc(C)c(-c4ccc(F)cc4)c3C#N)o2)cc(OC)c1OC

IC50	IC50 [1]	outcome	Compound
> 100 µM (inactive)	46.5 µM	–	Cc1oc(NC(=O)CSc2n[nH]c(-c3ccc(F)cc3)n2)c(C#N)c1C
inactive	> 100 µM	–	Cc1cccc2cc(C(c3nnnn3C(C)(C)C)N3CCNCC3)c(=O)[nH]c12 (stereo not drawn)
inactive	39.9 µM	–	COc1cccc(NC(=O)c2ccccc2-c2nc(-c3ccc(Cl)cc3)no2)c1
9.11 µM	15.3 µM	–	Cc1sc(NC(=O)CSc2n[nH]c(-c3ccc(O)cc3)n2)c(C#N)c1-c1ccc(F)cc1
inactive	47.8 µM	–	Cc1sc(NC(=O)CSc2nnc(-c3ccccc3)o2)c(C#N)c1C
–	5.62 µM	inactive	CCc1ccc(NC(=O)CSc2nc(C)cc(=O)[nH]2)cc1
inactive	40.1 µM	–	COc1ccccc1NC(=O)c1ccccc1-c1nc(-c2ccc(Cl)cc2)no1
–	> 100 µM	inactive	CCCc1cc(=O)[nH]c(SCC(=O)Nc2ccc(C(=O)OC)cc2)n1
inactive	44.7 µM	–	O=C(NCc1cccs1)c1cc2nc(-c3ccc4c(c3)OCO4)cc(C(F)(F)F)n2n1
< 0.78 µM (inactive)	55.7 µM	–	Cc1cccc2cc(C(c3nnnn3C(C)(C)C)N3CCN(C(=O)c4ccco4)CC3)c(=O)[nH]c12 (stereo not drawn)
inactive	41.7 µM	–	N#Cc1c(NC(=O)CSc2nnc(-c3ccc(F)cc3)o2)sc2c1CCCC2
5.51 µM	> 100 µM	–	Cc1sc(NC(=O)CSc2nnc(-c3ccc(Cl)cc3)o2)c(C#N)c1-c1ccc(F)cc1
inactive	1.55 µM	–	Cc1cccc2cc(C(C#N)N3CCNCC3)c(=O)[nH]c12 (stereo not drawn)
–	> 100 µM	inactive	O=C(NCc1ccccn1)c1cc2nc(-c3ccc4c(c3)OCO4)cc(C(F)(F)F)n2n1
inactive	> 100 µM	–	Cc1cccc2cc(C(C#N)N3CCN(C(=O)OC(C)(C)C)CC3)c(=O)[nH]c12 (stereo not drawn)
–	> 100 µM	inactive	CCc1cc(=O)[nH]c(SCC(=O)Nc2ccc(C(=O)OC)cc2)n1
> 100 µM (inactive)	58.8 µM	–	O=C(O)c1ccccc1-c1nc(-c2cccc(Cl)c2)no1
